These results are taken from US20220125051A1, “PRE-HARVEST DESICCATION METHOD” (SYNGENTA CROP PROTECTION AG, priority 2019, published 2022).

Common to all, as to assay: Post-emergence efficacy, Method A
What all share (assay type): in vivo

The subject of assay [1] is Amaranthus palmeri (AMAPA). The following applies: evaluated after 13 days; for pest or weed control at 500 g/ha: Amaranthus palmeri, post-emergence, 312 h. The procedure, abridged:
(§1)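 Post-emergence spray on 14-day-old glasshouse plants (24/16 °C day/night, 14 h photoperiod, 65% humidity). Test material was taken up in acetone and IF50 emulsifier mix, then diluted with sodium lauryl ether sulphate (0.25% or 1%) plus 1% ammonium sulphate. Damage was rated 13 days later, 100 = total.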

Assay [2] concerns Chenopodium album (CHEAL). The following applies: evaluated after 13 days; for pest or weed control at 500 g/ha: Chenopodium album, post-emergence, 312 h. The procedure, abridged:
as §1

The test system of assay [3] is Ipomoea hederacea (IPOHE). The following applies: evaluated after 13 days; for pest or weed control at 500 g/ha: Ipomoea hederacea, post-emergence, 312 h. The procedure, abridged: as §1
In assay [4] the test system is Echinochloa crus-galli (ECHCG). The following applies: evaluated after 13 days; for pest or weed control at 500 g/ha: Echinochloa crus-galli, post-emergence, 312 h. Summed up:
as §1

Another assay deals with Eleusine indica (ELEIN). Particulars: evaluated after 13 days; for pest or weed control at 500 g/ha: Eleusine indica, post-emergence, 312 h. Summed up:
as §1

The next assay concerns Setaria faberi (SETFA). Particulars: evaluated after 13 days; for pest or weed control at 500 g/ha: Setaria faberi, post-emergence, 312 h. Summed up: as §1
For assay [5], the system named is Digitaria sanguinalis (DIGSA). The following applies: evaluated after 13 days; for pest or weed control at 500 g/ha: Digitaria sanguinalis, post-emergence, 312 h. Summed up:
as §1

For a further assay, the system named is Lolium perenne (LOLPE). Particulars: evaluated after 13 days; for pest or weed control at 500 g/ha: Lolium perenne, post-emergence, 312 h. The procedure, abridged:
as §1

Assay [6] has as its system Euphorbia heterophylla (EPHHL). Particulars: evaluated after 13 days; for pest or weed control at 500 g/ha: Euphorbia heterophylla, post-emergence, 312 h. Summed up: as §1
[7] abbreviates: Application rate 500 g/Ha, 100=total damage to plant, 0=no damage to plant, read-out: Control of weed species after post-emergence application, AMAPA.
[8] abbreviates: Application rate 500 g/Ha, 100=total damage to plant, 0=no damage to plant, read-out: Control of weed species after post-emergence application, CHEAL.
The mark [9] stands for this setting: Application rate 500 g/Ha, 100=total damage to plant, 0=no damage to plant, read-out: Control of weed species after post-emergence application, IPOHE.
[10] abbreviates: Application rate 500 g/Ha, 100=total damage to plant, 0=no damage to plant, read-out: Control of weed species after post-emergence application, ECHCG.
Where [11] appears, read: Application rate 500 g/Ha, 100=total damage to plant, 0=no damage to plant, read-out: Control of weed species after post-emergence application, ELEIN.
Where [12] appears, read: Application rate 500 g/Ha, 100=total damage to plant, 0=no damage to plant, read-out: Control of weed species after post-emergence application, SETFA.
[13] abbreviates: Application rate 500 g/Ha, 100=total damage to plant, 0=no damage to plant, read-out: Control of weed species after post-emergence application, DIGSA.
Setting [14] is: Application rate 500 g/Ha, 100=total damage to plant, 0=no damage to plant, read-out: Control of weed species after post-emergence application, LOLPE.
The mark [15] stands for this setting: Application rate 500 g/Ha, 100=total damage to plant, 0=no damage to plant, read-out: Control of weed species after post-emergence application, EPHHL.
[16] abbreviates: Application Rate 500 g/Ha, Method A, read-out: Control of weed species after post-emergence application, AMAPA (100=total damage to plant; 0=no damage to plant).
[17] abbreviates: Application Rate 500 g/Ha, Method A, read-out: Control of weed species after post-emergence application, CHEAL (100=total damage to plant; 0=no damage to plant).
The mark [18] stands for this setting: Application Rate 500 g/Ha, Method A, read-out: Control of weed species after post-emergence application, IPOHE (100=total damage to plant; 0=no damage to plant).
[19] abbreviates: Application Rate 500 g/Ha, Method A, read-out: Control of weed species after post-emergence application, ECHCG (100=total damage to plant; 0=no damage to plant).
Where [20] appears, read: Application Rate 500 g/Ha, Method A, read-out: Control of weed species after post-emergence application, ELEIN (100=total damage to plant; 0=no damage to plant).
The mark [21] stands for this setting: Application Rate 500 g/Ha, Method A, read-out: Control of weed species after post-emergence application, SETFA (100=total damage to plant; 0=no damage to plant).
The mark [22] stands for this setting: Application Rate 500 g/Ha, Method A, read-out: Control of weed species after post-emergence application, DIGSA (100=total damage to plant; 0=no damage to plant).
Where [23] appears, read: Application Rate 500 g/Ha, Method A, read-out: Control of weed species after post-emergence application, LOLPE (100=total damage to plant; 0=no damage to plant).
Where [24] appears, read: Application Rate 500 g/Ha, Method A, read-out: Control of weed species after post-emergence application, EPHHL (100=total damage to plant; 0=no damage to plant).
[25] abbreviates: Application Rate 500 g/Ha, Method A.

Like-named read-outs stand apart in the source and are kept apart here.

Take `Cc1n[n+](CCC(=O)O)ccc1-c1ccccn1` [Compound A145]: the pest or weed control at 500 g/ha amounted to 10% in [1] (setting [7]); 10% in assay [2] (setting [8]); 10% in [3] (setting [9]); 0% in [4] (setting [10]); 0% with Eleusine indica (ELEIN) (setting [11]); 0% in the assay on Setaria faberi (SETFA) (setting [12]). The figures for the pest or weed control at 500 g/ha (in [5] (setting [13]); with Lolium perenne (LOLPE) (setting [14]); in assay [6] (setting [15])) were 10%, 0% and 10%, respectively.
Regarding `Cc1cc(-c2cc[n+](CCS(=O)(=O)[O-])nc2)ncn1` [Compound A117], the pest or weed control at 500 g/ha was found to be 90% in [1] (setting [7]); 90% in assay [2] (setting [8]); 80% in assay [3] (setting [9]); 90% in assay [4] (setting [10]); 90% in the assay on Eleusine indica (ELEIN) (setting [11]); 100% in the assay on Setaria faberi (SETFA) (setting [12]). Also, the figures for the pest or weed control at 500 g/ha (in assay [5] (setting [13]); in the assay with Lolium perenne (LOLPE) (setting [14]); in [6] (setting [15])) were 70%, 50% and 100%, respectively.
Consider `CN(C)C(=O)c1cnc(-c2cc[n+](CCC(=O)[O-])nc2)nc1` [Compound A92], for which the pest or weed control at 500 g/ha in assay [1] (setting [7]) worked out at 90%; in assay [2] (setting [8]), 90%; in assay [3] (setting [9]) it was 100%; in [4] (setting [10]), 80%; in the assay on Eleusine indica (ELEIN) (setting [11]), 90%; in the assay with Setaria faberi (SETFA) (setting [12]) it was 90%. Also, the pest or weed control at 500 g/ha in assay [5] (setting [13]) was 60%; in the assay with Lolium perenne (LOLPE) (setting [14]), 50%; in assay [6] (setting [15]), 70%.
As to `Cc1cnc(-c2cc[n+](CCC(=O)O)nc2)c(F)c1` [Compound A178], the pest or weed control at 500 g/ha in assay [1] (setting [16]) was found to be 90%; in assay [2] (setting [17]) it was 70%; in assay [3] (setting [18]), 20%; in assay [4] (setting [19]) it was 10%; in the assay on Eleusine indica (ELEIN) (setting [20]), 0%; in the assay on Setaria faberi (SETFA) (setting [21]), 10%. Besides, the pest or weed control at 500 g/ha amounted to 10% in assay [5] (setting [22]), 0% in the assay with Lolium perenne (LOLPE) (setting [23]) and 40% in assay [6] (setting [24]).
Turning to `O=S(=O)([O-])CC[n+]1ccc(-c2ncccc2C(F)(F)F)cn1` [Compound A140], the pest or weed control at 500 g/ha came to 60% in assay [1] (setting [7]); 50% in assay [2] (setting [8]); 20% in assay [3] (setting [9]); 20% in assay [4] (setting [10]); 10% in the assay with Eleusine indica (ELEIN) (setting [11]); 30% in the assay with Setaria faberi (SETFA) (setting [12]). The pest or weed control at 500 g/ha was determined as 10% in assay [5] (setting [13]), 0% with Lolium perenne (LOLPE) (setting [14]) and 50% in [6] (setting [15]).
For the compound `COc1nc(-c2cc[n+](CCC(=O)[O-])nc2)ncc1C` [Compound A106], the pest or weed control at 500 g/ha in assay [1] (setting [7]) came out at 80%; in assay [2] (setting [8]), 20%; in assay [3] (setting [9]), 10%; in assay [4] (setting [10]), 50%; with Eleusine indica (ELEIN) (setting [11]), 80%; with Setaria faberi (SETFA) (setting [12]), 60%. Also, the pest or weed control at 500 g/ha in assay [5] (setting [13]) stood at 60%; with Lolium perenne (LOLPE) (setting [14]), 60%; in assay [6] (setting [15]), 20%.
As for `CCOP(=O)(O)CC[n+]1ccc(-c2ncccn2)cn1` [Compound A113, ethoxy-[2-(4-pyrimidin-2-ylpyridazin-1-ium-1-yl)ethyl]phosphinate], the pest or weed control at 500 g/ha in assay [1] (setting [7]) was 40%; in [2] (setting [8]), 90%; in assay [3] (setting [9]), 60%; in [4] (setting [10]), 60%; in the assay with Eleusine indica (ELEIN) (setting [11]), 40%; in the assay on Setaria faberi (SETFA) (setting [12]), 50%. In addition, the results for the pest or weed control at 500 g/ha (in [5] (setting [13]); with Lolium perenne (LOLPE) (setting [14]); in assay [6] (setting [15])) were 60%, 10% and 100%, respectively.
Consider `COC(=O)c1cnc(-c2cc[n+](CCS(=O)(=O)[O-])nc2)nc1` [Compound A33], for which the pest or weed control at 500 g/ha in assay [1] (setting [7]) is 100%; in [2] (setting [8]), 80%; in assay [3] (setting [9]), 40%; in [4] (setting [10]) it was 40%; in the assay with Eleusine indica (ELEIN) (setting [11]), 80%; in the assay with Setaria faberi (SETFA) (setting [12]), 60%. Moreover, the pest or weed control at 500 g/ha in assay [5] (setting [13]) turned out to be 60%; in the assay on Lolium perenne (LOLPE) (setting [14]), 50%; in assay [6] (setting [15]), 60%.
For `O=S(=O)([O-])CC[n+]1ccc(-c2ncc(CO)cn2)cn1` [Compound A170], the pest or weed control at 500 g/ha is 100% in assay [1] (setting [16]); 100% in assay [2] (setting [17]); 40% in [3] (setting [18]); 80% in [4] (setting [19]); 40% in the assay with Eleusine indica (ELEIN) (setting [20]); 80% in the assay on Setaria faberi (SETFA) (setting [21]). Moreover, the pest or weed control at 500 g/ha in assay [5] (setting [22]) was found to be 40%; with Lolium perenne (LOLPE) (setting [23]) it was 50%; in assay [6] (setting [24]) it was 70%.
Take `Cc1cc(F)cnc1-c1cc[n+](CCC(=O)O)nc1` [Compound A151]: the pest or weed control at 500 g/ha was found to be 20% in assay [1] (setting [7]); 20% in assay [2] (setting [8]); 10% in [3] (setting [9]); 20% in assay [4] (setting [10]); 20% with Eleusine indica (ELEIN) (setting [11]); 20% in the assay with Setaria faberi (SETFA) (setting [12]). Besides, the figures for the pest or weed control at 500 g/ha (in assay [5] (setting [13]); in the assay with Lolium perenne (LOLPE) (setting [14]); in assay [6] (setting [15])) were 20%, 10% and 40%, respectively.
As for `COP(=O)(C[n+]1ccc(-c2ccncn2)cn1)OC.O=S(=O)([O-])C(F)(F)F` [Compound A237], the “Control of weed species after post-emergence application, AMAPA (100=total damage to plant; 0=no damage to plant)” value in assay [1] (setting [25]) came to 60. The “Control of weed species after post-emergence application, CHEAL (100=total damage to plant; 0=no damage to plant)” value in assay [2] (setting [25]) is on record as 10. The “Control of weed species after post-emergence application, IPOHE (100=total damage to plant; 0=no damage to plant)” value in [3] (setting [25]) is listed as 50. Also, the “Control of weed species after post-emergence application, ECHCG (100=total damage to plant; 0=no damage to plant)” value in assay [4] (setting [25]) was 10. The “Control of weed species after post-emergence application, ELEIN (100=total damage to plant; 0=no damage to plant)” value with Eleusine indica (ELEIN) (setting [25]) is recorded as 70. In addition, the “Control of weed species after post-emergence application, SETFA (100=total damage to plant; 0=no damage to plant)” value in the assay with Setaria faberi (SETFA) (setting [25]) came to 20. In [5] (setting [25]), the “Control of weed species after post-emergence application, DIGSA (100=total damage to plant; 0=no damage to plant)” value worked out at 50. In addition, the “Control of weed species after post-emergence application, LOLPE (100=total damage to plant; 0=no damage to plant)” value in the assay with Lolium perenne (LOLPE) (setting [25]) was 10. For the same compound, the “Control of weed species after post-emergence application, EPHHL (100=total damage to plant; 0=no damage to plant)” value in [6] (setting [25]) amounted to 0.
